Assay results from US20140121101A1, “TERNARY FUNGICIDAL COMPOSITIONS COMPRISING A DITHIINO-TETRACARBOXAMIDE FUNGICIDE” (BAYER INTELLECTUAL PROPERTY GMBH, priority 2011, published 2014).

System: Alternaria solani
Test: Alternaria test (tomatoes)/preventive
Type: in vivo
Conditions: tomato plants, preventive spray, evaluated 3 days after inoculation
Protocol: Alternaria Test (Tomatoes)/Preventive [table] To produce a suitable preparation of active compound, 1 part by weight of active compound is mixed with the stated amounts of solvent and emulsifier, and the concentrate is diluted with water to the desired concentration. To test for preventive activity, young plants are sprayed with the preparation of active compound at the stated rate of application. After the spray coating has dried on, the plants are inoculated with an aqueous spore suspension of Alternaria solani. The plants are then placed in an incubation cabinet at approximately 20° C. and a relative atmospheric humidity of 100%. The test is evaluated 3 days after the inoculation. 0% means an efficacy which corresponds to that of the untreated control while an efficacy of 100% means that no disease is observed.

| Structure (SMILES) | Efficacy in % found (activity found) (5 ppm a.i.) [%] | Efficacy in % found (activity found) (0.5 ppm a.i.) [%] |
| --- | --- | --- |
| Cn1c(=O)c2sc3c(=O)n(C)c(=O)c3sc2c1=O [(1.1), 2,6-dimethyl-1H,5H-[1,4]dithiino[2,3-c:5,6-c′]dipyrrole-1,3,5,7(2H,6H)-tetrone] | 0 |  |
| OC(Cc1ccccc1Cl)(Cn1nc[nH]c1=S)C1(Cl)CC1 (stereo not drawn) [(2.41), prothioconazole] |  | 4 |
| CON=C(C(=O)OC)c1ccccc1CON=C(C)c1cccc(C(F)(F)F)c1 [(3.22), trifloxystrobin] |  | 29 |
